Legend:
[1] = Inhibitory activity against recombinant human secretory Phospholipase A2 (s-PLA2) by phosphatidylcholine/deoxycholate assay(PC/DOC).
Phospholipase A2 = Phospholipase A2 (Homo sapiens, UniProt P04054); assay: Inhibition of recombinant human secretory Phospholipase A2 (s-PLA2)
Phospholipase A2, sequence (P04054 whole entry): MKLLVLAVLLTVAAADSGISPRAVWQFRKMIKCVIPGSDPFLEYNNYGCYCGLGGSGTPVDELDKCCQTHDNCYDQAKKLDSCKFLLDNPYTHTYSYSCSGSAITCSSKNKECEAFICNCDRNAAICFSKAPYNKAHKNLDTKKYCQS

Row | IC50 [1] | IC50 (Phospholipase A2) | SMILES
1 | 45 µM | 30 nM | CCc1c(C(=O)C(N)=O)c2c(OCn3ncnn3)cccn2c1Cc1cccc(Cl)c1 [2-[3-(3-Chloro-benzyl)-2-ethyl-8-(4H-tetrazol-2-ylmethoxy)-indolizin-1-yl]-2-oxo-acetamide]
2 | 130 µM | 25 nM | CCC1C(CC(N)=O)=C2C(OCC(=O)O)=CC=CN2/C1=C\c1cccc2ccccc12 (stereo unspecified) [{1-Carbamoylmethyl-2-ethyl-3-[1-naphthalen-1-yl-meth-(Z)-ylidene]-2,3-dihydro-indolizin-8-yloxy}-acetic acid]
3 | 420 µM | 100 nM | CCC1C(CC(N)=O)=C2C(OCC(=O)O)=CC=CN2/C1=C\c1ccccc1-c1ccccc1 (stereo unspecified) [{3-[1-Biphenyl-2-yl-meth-(Z)-ylidene]-1-carbamoylmethyl-2-ethyl-2,3-dihydro-indolizin-8-yloxy}-acetic acid]
